The values below come from patent US12172990B2 (Constellation Pharmaceuticals, Inc., priority 2018, dated 2024).

Test [1] has as its target human TREX2 (residues M44-A279) (Homo sapiens (Human), UniProt Q9BQ50). Kind of test: TREX2 Biochemical Assay (fluorescence assay measuring degradation of dsDNA substrate). The settings on record: 2.5 nM TREX2, 60 nM dsDNA substrate, 25 minutes at room temperature. Summed up: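 Final conditions: 2.5 nM His-Tev-tagged TREX2 (E. coli-expressed), 60 nM fluorophore/quencher-labelled dsDNA, 50 mM Tris pH 7.4, 150 mM NaCl, 100 mM MgCl2, 1% DMSO; 10-point compound dose-response. Incubated 25 min at room temperature, then EDTA-quenched; fluorescence read at ex 570/em 615 nm. IC50 from four-parameter fit against pre-quenched and no-inhibitor controls.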

The next test addresses full length human TREX1 (Homo sapiens (Human), UniProt Q9NSU2). Kind of test: TREX1 Biochemical Assay (fluorescence assay measuring degradation of dsDNA substrate). The settings on record: 150 pM TREX1, 60 nM dsDNA substrate, 25 minutes at room temperature. In outline: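 His-Tev-tagged full-length human TREX1 expressed in E. coli, 150 pM final, with 60 nM TEX615/quencher-labelled 9-mer dsDNA in Tris pH 7.4, NaCl, DTT, BSA, Tween-20, MgCl2 and 1.0% DMSO; 25 min at room temperature, EDTA-quenched. Fluorescence 615 nm (excitation 570 nm); 10-point IC50 by four-parameter fit against pre-quenched and no-inhibitor controls.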

The structures appear in SMILES notation. A value given as a limit tells only on which side of the number the result lay.

Sequence of human TREX2 (residues M44-A279) (Q9BQ50 whole entry, the tested form may be a part): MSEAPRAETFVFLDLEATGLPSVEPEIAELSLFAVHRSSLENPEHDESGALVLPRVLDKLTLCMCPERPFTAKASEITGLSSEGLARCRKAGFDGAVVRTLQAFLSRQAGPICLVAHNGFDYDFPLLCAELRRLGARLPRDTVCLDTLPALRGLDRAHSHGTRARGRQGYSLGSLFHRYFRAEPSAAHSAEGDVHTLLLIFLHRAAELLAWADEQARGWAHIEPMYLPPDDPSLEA
Sequence of full length human TREX1 (Q9NSU2 whole entry): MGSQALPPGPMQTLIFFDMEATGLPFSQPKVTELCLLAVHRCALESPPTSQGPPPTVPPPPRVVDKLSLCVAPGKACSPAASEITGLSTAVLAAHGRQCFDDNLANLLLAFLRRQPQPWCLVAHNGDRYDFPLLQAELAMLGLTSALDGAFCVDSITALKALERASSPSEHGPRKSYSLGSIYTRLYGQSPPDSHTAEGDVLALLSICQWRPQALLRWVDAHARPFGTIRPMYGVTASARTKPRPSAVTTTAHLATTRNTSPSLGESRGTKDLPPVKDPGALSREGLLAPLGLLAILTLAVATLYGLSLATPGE

Broadly, the IC50 is the concentration at which inhibition is half-maximal. As for `CC(C)CNC(=O)N1CCCC(c2nc(C(=O)Nc3cnoc3)c(O)c(=O)n2C)C1` (stereo not drawn) [Example 95], the IC50 was 10000 to 100000 nM in test [1] and 100 to 1000 nM at full length human TREX1.
The like results for `CC(C)C(=O)N1CCCC(c2nc(C(=O)Nc3cnoc3)c(O)c(=O)n2C)C1` (stereo not drawn) [Example 96, 5-hydroxy-2-(1-isobutyrylpiperidin-3-yl)-N-(isoxazol-4-yl)-1-methyl-6-oxo-1,6-dihydropyrimidine-4-carboxamide] were, in that order, 10000 to 100000 nM and 100 to 1000 nM.
In the same order, the values of `Cn1c([C@H]2CCCN(C(=O)c3ccc(Cl)c(Cl)c3)C2)nc(C(=O)Nc2cnoc2)c(O)c1=O` [Example 97, (S)-2-(1-(3,4-dichlorobenzoyl)piperidin-3-yl)-5-hydroxy-N-(isoxazol-4-yl)-1-methyl-6-oxo-1,6-dihydropyrimidine-4-carboxamide] are less than 1000 nM and less than 100 nM.
Turning to `Cn1c(C2CCCN(CC(F)(F)F)C2)nc(C(=O)Nc2cnoc2)c(O)c1=O` (stereo not drawn) [Example 98, 5-hydroxy-N-(isoxazol-4-yl)-1-methyl-6-oxo-2-(1-(2,2,2-trifluoroethyl)piperidin-3-yl)-1,6-dihydropyrimidine-4-carboxamide], the figures for the IC50 (in test [1]; against full length human TREX1) were 10000 to 100000 nM and 100 to 1000 nM, respectively.
The like results for `Cn1c(N2CCN(C(=O)c3ccccc3)CC2)nc(C(=O)Nc2cnoc2)c(O)c1=O` [Example 100, 2-(4-benzoylpiperazin-1-yl)-5-hydroxy-N-(isoxazol-4-yl)-1-methyl-6-oxo-1,6-dihydropyrimidine-4-carboxamide] were, in that order, 10000 to 100000 nM and 100 to 1000 nM.
In the same order, the values of `Cn1c(N2CCC[C@H](c3ccccn3)C2)nc(C(=O)Nc2cnoc2)c(O)c1=O` [Example 101, (S)-5-hydroxy-N-(isoxazol-4-yl)-1-methyl-6-oxo-2-(3-(pyridin-2-yl)piperidin-1-yl)-1,6-dihydropyrimidine-4-carboxamide] are 10000 to 100000 nM and 100 to 1000 nM.
The like results for `Cn1c(N2CCC[C@@H]2c2cccnc2)nc(C(=O)Nc2cnoc2)c(O)c1=O` [Example 102, (R)-5-hydroxy-N-(isoxazol-4-yl)-1-methyl-6-oxo-2-(2-(pyridin-3-yl)pyrrolidin-1-yl)-1,6-dihydropyrimidine-4-carboxamide] were, in that order, 10000 to 100000 nM and 100 to 1000 nM.
`Cn1c(N2CCC[C@H]2c2ccncc2)nc(C(=O)Nc2cnoc2)c(O)c1=O` [Example 103, (S)-5-hydroxy-N-(isoxazol-4-yl)-1-methyl-6-oxo-2-(2-(pyridin-4-yl)pyrrolidin-1-yl)-1,6-dihydropyrimidine-4-carboxamide]: the IC50 is 10000 to 100000 nM in test [1] and 100 to 1000 nM against full length human TREX1.
The like results for `Cn1c([C@H]2CCCCN2CCO)nc(C(=O)Nc2cnoc2)c(O)c1=O` [Example 104, (R)-5-hydroxy-2-(1-(2-hydroxyethyl)piperidin-2-yl)-N-(isoxazol-4-yl)-1-methyl-6-oxo-1,6-dihydropyrimidine-4-carboxamide] were, in that order, greater than 100000 nM and 1000 to 10000 nM.
Turning to `Cn1c(N2CCCC[C@H]2CCO)nc(C(=O)Nc2cnoc2)c(O)c1=O` [Example 106, (S)-5-hydroxy-2-(2-(2-hydroxyethyl)piperidin-1-yl)-N-(isoxazol-4-yl)-1-methyl-6-oxo-1,6-dihydropyrimidine-4-carboxamide], the IC50 in test [1] is 10000 to 100000 nM; against full length human TREX1, 100 to 1000 nM.
In the same order, the values of `Cn1c(N2CCCC[C@@H]2CCO)nc(C(=O)Nc2cnoc2)c(O)c1=O` [Example 107, (R)-5-hydroxy-2-(2-(2-hydroxyethyl)piperidin-1-yl)-N-(isoxazol-4-yl)-1-methyl-6-oxo-1,6-dihydropyrimidine-4-carboxamide] are 1000 to 10000 nM and less than 100 nM.
For the compound `Cn1c(N2CC[C@H](c3ccccc3)C2)nc(C(=O)Nc2cnoc2)c(O)c1=O` [Example 108, (R)-5-hydroxy-N-(isoxazol-4-yl)-1-methyl-6-oxo-2-(3-phenylpyrrolidin-1-yl)-1,6-dihydropyrimidine-4-carboxamide], the IC50 in test [1] was 10000 to 100000 nM; at full length human TREX1 it was less than 100 nM.
In the same order, the values of `Cn1c(N2CC[C@@H](c3ccccc3)C2)nc(C(=O)Nc2cnoc2)c(O)c1=O` [Example 109, (S)-5-hydroxy-N-(isoxazol-4-yl)-1-methyl-6-oxo-2-(3-phenylpyrrolidin-1-yl)-1,6-dihydropyrimidine-4-carboxamide] are 10000 to 100000 nM and less than 100 nM.
In the same order, the values of `CN(C)C(=O)[C@H]1CCCN1c1nc(C(=O)Nc2cnoc2)c(O)c(=O)n1C` [Example 110, (R)-2-(2-(dimethylcarbamoyl)pyrrolidin-1-yl)-5-hydroxy-N-(isoxazol-4-yl)-1-methyl-6-oxo-1,6-dihydropyrimidine-4-carboxamide] are 10000 to 100000 nM and 100 to 1000 nM.
The like results for `CC(=O)N1CCCN(c2nc(C(=O)Nc3cnoc3)c(O)c(=O)n2C)CC1` [Example 111, 2-(4-acetyl-1,4-diazepan-1-yl)-5-hydroxy-N-(isoxazol-4-yl)-1-methyl-6-oxo-1,6-dihydropyrimidine-4-carboxamide] were, in that order, 10000 to 100000 nM and 100 to 1000 nM.
On to `Cn1c(N2CCC[C@H]2c2ccccc2)nc(C(=O)Nc2cnoc2)c(O)c1=O` [Example 112, (S)-5-hydroxy-N-(isoxazol-4-yl)-1-methyl-6-oxo-2-(2-phenylpyrrolidin-1-yl)-1,6-dihydropyrimidine-4-carboxamide], for which the IC50 is 1000 to 10000 nM in test [1] and less than 100 nM against full length human TREX1.
The like results for `Cn1c(N2CCC[C@@H]2c2ccccc2)nc(C(=O)Nc2cnoc2)c(O)c1=O` [Example 113, (R)-5-hydroxy-N-(isoxazol-4-yl)-1-methyl-6-oxo-2-(2-phenylpyrrolidin-1-yl)-1,6-dihydropyrimidine-4-carboxamide] were, in that order, 1000 to 10000 nM and less than 100 nM.
The like results for `CC(=O)N1CCN(c2nc(C(=O)Nc3cnoc3)c(O)c(=O)n2C)CC1` [Example 116, 2-(4-acetylpiperazin-1-yl)-5-hydroxy-N-(isoxazol-4-yl)-1-methyl-6-oxo-1,6-dihydropyrimidine-4-carboxamide] were, in that order, 10000 to 100000 nM and 100 to 1000 nM.
In the same order, the values of `Cn1c(N2CC[C@H](C(N)=O)C2)nc(C(=O)Nc2cnoc2)c(O)c1=O` [Example 117, (S)-2-(3-carbamoylpyrrolidin-1-yl)-5-hydroxy-N-(isoxazol-4-yl)-1-methyl-6-oxo-1,6-dihydropyrimidine-4-carboxamide] are 10000 to 100000 nM and 100 to 1000 nM.
As for `Cn1c(N2CC[C@@H](C(N)=O)C2)nc(C(=O)Nc2cnoc2)c(O)c1=O` [Example 118, (R)-2-(3-carbamoylpyrrolidin-1-yl)-5-hydroxy-N-(isoxazol-4-yl)-1-methyl-6-oxo-1,6-dihydropyrimidine-4-carboxamide], the IC50 is 10000 to 100000 nM in test [1] and less than 100 nM at full length human TREX1.
For the compound `Cn1c(N2CCC[C@H](C(N)=O)C2)nc(C(=O)Nc2cnoc2)c(O)c1=O` [Example 119, (S)-2-(3-carbamoylpiperidin-1-yl)-5-hydroxy-N-(isoxazol-4-yl)-1-methyl-6-oxo-1,6-dihydropyrimidine-4-carboxamide], the IC50 in test [1] is 10000 to 100000 nM; against full length human TREX1, 100 to 1000 nM.
The like results for `Cn1c(Oc2ccccc2)nc(C(=O)Nc2cnoc2)c(O)c1=O` [Example 120, 5-hydroxy-N-(isoxazol-4-yl)-1-methyl-6-oxo-2-phenoxy-1,6-dihydropyrimidine-4-carboxamide] were, in that order, 1000 to 10000 nM and less than 100 nM.
On to `Cn1c(OC2CCCCC2)nc(C(=O)Nc2cnoc2)c(O)c1=O` [Example 121, 2-(cyclohexyloxy)-5-hydroxy-N-(isoxazol-4-yl)-1-methyl-6-oxo-1,6-dihydropyrimidine-4-carboxamide], for which the IC50 in test [1] was 1000 to 10000 nM; at full length human TREX1 it was less than 100 nM.
In the same order, the values of `Cn1c(N2CC(Oc3ccccc3)C2)nc(C(=O)Nc2cnoc2)c(O)c1=O` [Example 122, 5-hydroxy-N-(isoxazol-4-yl)-1-methyl-6-oxo-2-(3-phenoxyazetidin-1-yl)-1,6-dihydropyrimidine-4-carboxamide] are 10000 to 100000 nM and 100 to 1000 nM.
In the same order, the values of `Cn1c(N2CC(OCc3ccccc3)C2)nc(C(=O)Nc2cnoc2)c(O)c1=O` [Example 123, 2-(3-(benzyloxy)azetidin-1-yl)-5-hydroxy-N-(isoxazol-4-yl)-1-methyl-6-oxo-1,6-dihydropyrimidine-4-carboxamide] are 10000 to 100000 nM and 100 to 1000 nM.
Regarding `Cn1c(N2CCC[C@@H]2c2ccccc2Cl)nc(C(=O)Nc2cnoc2)c(O)c1=O` [Example 124, (R)-2-(2-(2-chlorophenyl)pyrrolidin-1-yl)-5-hydroxy-N-(isoxazol-4-yl)-1-methyl-6-oxo-1,6-dihydropyrimidine-4-carboxamide], the IC50 in test [1] was 1000 to 10000 nM; on full length human TREX1 it was less than 100 nM.
The like results for `Cn1c(N2CCN(c3ccccn3)C[C@@H]2c2ccccc2Cl)nc(C(=O)Nc2cnoc2)c(O)c1=O` [Example 125, (S)-2-(2-(2-chlorophenyl)-4-(pyridin-2-yl)piperazin-1-yl)-5-hydroxy-N-(isoxazol-4-yl)-1-methyl-6-oxo-1,6-dihydropyrimidine-4-carboxamide] were, in that order, less than 1000 nM and less than 100 nM.
